Data from PubChem BioAssay (NCI).
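Each compound was tested at five concentrations against cells in 96-well plates for 48 hours. TGI: total growth inhibition.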

Key:
Assay in all cases: NCI-60 cell line screen, 48 h
A498 renal = test system: A498 renal
HCC-2998 colon = test system: HCC-2998 colon
HCT-15 colon = test system: HCT-15 colon
K-562 leukemia = test system: K-562 leukemia
M14 melanoma = test system: M14 melanoma
MDA-MB-231 breast = test system: MDA-MB-231 breast
NCI-H522 lung = test system: NCI-H522 lung
OVCAR-3 ovarian = test system: OVCAR-3 ovarian
SK-MEL-5 melanoma = test system: SK-MEL-5 melanoma
SK-OV-3 ovarian = test system: SK-OV-3 ovarian
UO-31 renal = test system: UO-31 renal

Structure (SMILES)	TGI (A498 renal)	TGI (HCC-2998 colon)	TGI (HCT-15 colon)	TGI (K-562 leukemia)	TGI (M14 melanoma)	TGI (MDA-MB-231 breast)	TGI (NCI-H522 lung)	TGI (OVCAR-3 ovarian)	TGI (SK-MEL-5 melanoma)	TGI (SK-OV-3 ovarian)	TGI (UO-31 renal)
N#Cc1c(-c2ccccc2)c(C#N)c(=S)n(C2OCC(O)C(O)C2O)c1N (centres undefined)	> 100 µM	> 100 µM	> 100 µM	> 100 µM	> 100 µM	> 100 µM	> 100 µM	> 100 µM	> 100 µM	> 100 µM	> 100 µM
CC(=O)O[C@H]1CC[C@@]2(C)C(=CC[C@H]3[C@@H]4C/C(=C\c5ccncc5)[C@H](OC(C)=O)[C@@]4(C)CC[C@@H]32)C1	26.7 µM	26.3 µM	15.6 µM	42.4 µM	30.2 µM	41.1 µM	18.5 µM	23.4 µM	18.9 µM	44.1 µM	20.7 µM
Cc1ccc(C(=O)c2[nH]c(Nc3ccc(Cl)cc3)c(C(=S)Nc3ccccc3)c2N)cc1	27.9 µM	5.31 µM	28.5 µM	24 µM	35.8 µM	24.2 µM	23.6 µM	56.8 µM		27.3 µM	23 µM
N#Cc1nc(NC(=O)c2ccccc2)sc1N	> 10 µM	> 10 µM	> 10 µM	> 10 µM	> 10 µM	> 10 µM	> 10 µM	> 10 µM	> 10 µM	> 10 µM	> 10 µM
CCOC(=O)c1nc2cc(C(F)(F)F)ccc2nc1Oc1ccc(C(=O)OC)cc1	> 100 µM	> 100 µM	> 100 µM	> 100 µM	> 100 µM	> 100 µM	> 100 µM	> 100 µM	> 100 µM		> 100 µM
Nc1nc(NCC2(CO)CC(CCc3ccccc3)C2)cc(=O)[nH]1 (centres undefined)	> 100 µM	> 100 µM	> 100 µM	> 100 µM	> 100 µM	> 100 µM	> 100 µM	> 100 µM	> 100 µM	80.6 µM	67.8 µM
CC(=O)[C@]1(C)[C@H](C)O[C@](C)(CO)[C@H]1O[Si](C)(C)c1ccccc1	> 100 µM	> 100 µM	84.6 µM	> 100 µM	> 100 µM	> 100 µM	52.3 µM	> 100 µM	> 100 µM	> 100 µM	46.6 µM
CCCCC1=CC1(C#N)[N+](=O)[O-] (centres undefined)	> 100 µM	> 100 µM	> 100 µM	66.6 µM	> 100 µM	> 100 µM	> 100 µM	> 100 µM	> 100 µM	> 100 µM	> 100 µM
CC(=O)OC(C#N)CC(C)(C)/[N+]([O-])=[N+](\[O-])C(C)(C)CC(C#N)OC(C)=O (centres undefined)	> 100 µM	31.6 µM	25.5 µM	26.2 µM	32.2 µM	36.1 µM	23.9 µM	40 µM	33.9 µM	> 100 µM	63.6 µM
Cc1ccc(Nc2cc(=O)[nH]c(=O)[nH]2)cc1CS	> 100 µM	> 100 µM	> 100 µM	> 100 µM	> 100 µM	> 100 µM	> 100 µM	> 100 µM	> 100 µM	> 100 µM	> 100 µM
CN(C)c1ccc(/C=C2\N=C(c3ccccc3)N(/N=C3\C(=O)Nc4ccccc43)C2=O)cc1	> 100 µM	> 100 µM	> 100 µM	> 100 µM	> 100 µM	> 100 µM	> 100 µM	65.5 µM	> 100 µM	> 100 µM	> 100 µM
Cc1n(-c2ccccc2)c2c([n+]1Cc1ccc([N+](=O)[O-])cc1)C(=O)c1ccccc1C2=O	25.5 µM	4.2 µM	22.5 µM	4.64 µM	7 µM	3.08 µM	1.67 µM	0.854 µM	3.29 µM	12.5 µM	26.6 µM
CC1C(=O)CC[C@@]2(C)C(=O)CCCC12O (some centres undefined)	> 100 µM	> 100 µM	> 100 µM	> 100 µM	> 100 µM	> 100 µM	> 100 µM	> 100 µM	> 100 µM	> 100 µM	> 100 µM
CN1CC(S(=O)(=O)c2ccccc2)CC(S(=O)(=O)c2ccccc2)C1c1ccccc1 (centres undefined)	31.7 µM	30.3 µM	32.2 µM	95.2 µM	42.1 µM	31.8 µM	13.1 µM	27.8 µM	28.6 µM	> 100 µM	29.4 µM
COC(=O)CCSC1=CC(=O)c2nc3ccccc3c3ccnc1c23	> 100 µM	27.6 µM	27.9 µM	> 42 µM	47.2 µM	> 70.7 µM	3.74 µM	11.4 µM	> 53.5 µM	> 100 µM	31.7 µM
Cc1ccc(S(=O)(=O)c2ccsc2NC(=O)c2ccccc2)cc1	> 100 µM	> 100 µM	> 100 µM	> 21.8 µM	> 100 µM	> 79.4 µM	> 100 µM	> 100 µM	> 100 µM	> 100 µM	> 100 µM
O=C(O)c1nc2cc(C(F)(F)F)ccc2[nH]c1=O	> 100 µM	> 100 µM	> 100 µM	> 100 µM	> 100 µM	> 100 µM	> 100 µM	> 100 µM	> 100 µM	> 100 µM	> 100 µM
O=C(Oc1ccc(OC(Oc2ccccc2)c2ccccc2)cc1)c1ccccc1 (centres undefined)	23.8 µM	22 µM		> 31.6 µM	> 31.6 µM	> 31.6 µM	> 100 µM	> 31.6 µM	> 31.6 µM	> 31.6 µM	> 31.6 µM
Cc1cn(C2CC(N=[N+]=[N-])C(C(=O)O)O2)c(=O)[nH]c1=O (centres undefined)	> 100 µM	> 100 µM	> 100 µM	> 100 µM	> 100 µM	> 100 µM	> 100 µM	> 100 µM	> 100 µM	> 100 µM	> 100 µM
CCCCCCCCCCCCCCC[C@@H](O)C[N+](C)(C)CCO	> 100 µM	4.81 µM	14 µM	> 100 µM	41.1 µM	7.85 µM	4.35 µM	> 93.6 µM	7.07 µM	36 µM	35.6 µM
O=c1[nH]cnc2c1ncn2C1SC(CO)C(O)C1O (centres undefined)	> 100 µM	> 100 µM	> 100 µM	> 100 µM	> 100 µM	> 100 µM	> 100 µM	> 100 µM	> 100 µM	> 100 µM	> 100 µM
O=C1c2ccccc2-n2c1nc1cc(Cl)ccc1c2=O	> 100 µM	> 100 µM	> 100 µM	> 100 µM	> 100 µM	> 100 µM	> 100 µM	> 100 µM	76.4 µM	> 100 µM	> 100 µM
COc1ccc2[nH]cc(CN3CCC(CO)(c4ccccc4)CC3)c2c1	> 100 µM	46.2 µM	> 100 µM	43.1 µM	32.3 µM	80.9 µM	35.5 µM	> 100 µM	27.1 µM	> 100 µM	72.2 µM
COC(=O)c1c2c(cc3c1CC1(C3)Cc3ccc4c(c3C1=O)CCC4)CCC2 (centres undefined)	> 49.7 µM	40.1 µM	> 100 µM	> 100 µM	18.6 µM	8.88 µM	6.19 µM	> 31.5 µM	20.4 µM	> 77.4 µM	> 44.6 µM
O=C(Nn1c(-c2ccccc2)nc2ccccc2c1=O)c1ccc(O)cc1	> 100 µM	> 100 µM	> 100 µM	> 100 µM	> 100 µM	> 100 µM	> 100 µM	> 100 µM	> 100 µM	> 100 µM	> 100 µM
Cc1ccc(-c2n[nH]c(=O)n2N2C(=O)C=CC2=O)cc1	> 100 µM	> 100 µM	> 100 µM	> 100 µM	> 100 µM	> 100 µM	> 100 µM	> 100 µM	> 100 µM	> 100 µM	
O=c1c2ccccc2n2n1Cc1ccccc1C2	> 100 µM	> 100 µM	> 100 µM	> 100 µM		> 100 µM	> 100 µM	> 100 µM	> 100 µM	> 100 µM	> 100 µM
COC1CC(n2ccc(=O)[nH]c2=O)OC1CO (centres undefined)	> 100 µM	> 100 µM	> 100 µM	> 100 µM	> 100 µM	> 100 µM	> 100 µM	> 100 µM	> 100 µM	> 100 µM	> 100 µM
Nc1ccc(-c2nc3ccccc3s2)cc1I	> 90.8 µM	> 100 µM	> 100 µM	> 100 µM	> 100 µM	> 100 µM	> 100 µM	> 100 µM	> 100 µM	> 100 µM	> 100 µM
